Patent US10183039B2, “Methods for the production of collagen IV” (Vanderbilt University, priority 2013, dated 2019)

T1: collagen IV NC1 hexamer (Mus musculus, UniProt P02463+P08122)
T1 sequence (P02463 1445-1669 limits assumed): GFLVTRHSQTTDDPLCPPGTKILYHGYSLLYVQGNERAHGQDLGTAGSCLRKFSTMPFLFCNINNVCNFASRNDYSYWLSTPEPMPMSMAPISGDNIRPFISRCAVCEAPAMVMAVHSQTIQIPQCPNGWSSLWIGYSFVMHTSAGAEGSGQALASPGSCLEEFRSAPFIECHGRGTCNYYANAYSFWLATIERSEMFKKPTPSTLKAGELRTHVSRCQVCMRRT
T1 sequence (P08122 1484-1707 limits assumed): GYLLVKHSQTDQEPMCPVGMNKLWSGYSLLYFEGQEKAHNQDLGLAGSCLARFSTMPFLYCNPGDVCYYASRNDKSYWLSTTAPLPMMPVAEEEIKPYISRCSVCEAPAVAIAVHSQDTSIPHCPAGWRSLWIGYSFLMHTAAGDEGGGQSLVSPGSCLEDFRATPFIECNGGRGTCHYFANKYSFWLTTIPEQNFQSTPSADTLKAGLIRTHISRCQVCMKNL

B1: myeloperoxidase: animal heme peroxidase used as comparator (protein, UniProt P05164 165-745, looked up)
Myeloperoxidase: VTCPEQDKYRTITGMCNNRRSPTLGASNRAFVRWLPAEYEDGFSLPYGWTPGVKRNGFPVALARAVSNEIVRFPTDQLTPDQERSLMFMQWGQLLDHDLDFTPEPAARASFVTGVNCETSCVQQPPCFPLKIPPNDPRIKNQADCIPFFRSCPACPGSNITIRNQINALTSFVDASMVYGSEEPLARNLRNMSNQLGLLAVNQRFQDNGRALLPFDNLHDDPCLLTNRSARIPCFLAGDTRSSEMPELTSMHTLLLREHNRLATELKSLNPRWDGERLYQEARKIVGAMVQIITYRDYLPLVLGPTAMRKYLPTYRSYNDSVDPRIANVFTNAFRYGHTLIQPFMFRLDNRYQPMEPNPRVPLSRVFFASWRVVLEGGIDPILRGLMATPAKLNRQNQIAVDEIRERLFEQVMRIGLDLPALNMQRSRDHGLPGYNAWRRFCGLPQPETVGQLGTVLRNLKLARKLMEQYGTPNNIDIWMGGVSEPLKRKGRVGPLLACIIGTQFRKLRDGDRFWWENEGVFSMQQRQALAQISLPRIICDNTGITTVSKNNIFMSNSYPRDFVNCSTLPALNLASWREAS

Experiments:
[1] = HOBr versus HOCl, methionine to dehydromethionine; cited from earlier work
collagen IV NC1 hexamer [2] = biological target: T1, collagen IV NC1 hexamer; assay: Hypohalous acid oxidation of purified uncrosslinked NC1 hexamer; conditions: for crosslinked dimeric subunits (percentage of dimeric subunit): 500 nM NC1 hexamer, 5 μM hypohalous acid, 30 min at 37° C. (FIG. 4A)
Experimental: (FIG. 4A) Five hundred nanomolar collagen IV NC1 hexamer (3 μM potential crosslinks) was incubated alone (control) or with 5 μM hypochlorous (HOCl) or hypobromous acid (HOBr) for 30 min at 37° C. […] (FIGS. 4B-D) 16 nM myeloperoxidase (MPO) (FIG. 4B), eosinophil peroxidase (EPO) (FIG. 4C) or lactoperoxidase (LPO) (FIG. 4D) were reacted with 500 nM NC1 hexamer (3 μM potential crosslinks) for varying time points in 1×PBS with or without 10 μM H2O2. In the case of LPO, all reactions proceeded for 60 min. Collagen IV-sulfilimine crosslink content was visualized after SDS-PAGE and Coomassie blue staining of the reactions. Each gel is representative of three independent experiments. PHG, phloroglucinol; MW, molecular weight.
FIGS. 9A-D. Chemical mechanism of sulfilimine formation within the NC1 hexamer. (FIG. 9A) Purified uncrosslinked NC1 hexamer (5 μM) was reacted for 5 minutes at 37° with the indicated amounts of hypohalous acids and analyzed by SDS-PAGE. […] Values represent mean±S.D. (n=3). (FIG. 7B) Uncrosslinked NC1 hexamer (1.3 μM) in Br-Free PBS was preoxidzed with indicated amounts of HOCl for 1 min at 37 C, followed by post-oxidation with the addition of 8 mol eq. HOBr (or HOCl as a control) which was reacted for an additional minute at 37° C., then quenched with 20 mM methionine. Gel is representative of two experiments (FIG. 9C) XIC analysis of the residual monomeric NC1 subunit following HOCl oxidation (10 mol eq) compared to input NC1 monomer after SDS-PAGE and in-gel trypsin digestion. ^16O addition to the methionine residues was confirmed by MS3 analysis. (FIG. 9D) Met93 oxidation pathway consistent with experimental data and the resultant enthalphic landscape for S═N bond formation within the NC1 hexamer.
(FIG. 15) Fifty micromolar of hypohalous oxidants were added to 5 μM uncrosslinked NC1 domains, and reacted for 5 minutes at 37° C. before quenching by adding L-methionine to 1 mM final concentration. […] Experiments were run in triplicate and analyzed by 12% non-reducing SDS-PAGE and ImageJ.
The efficiency of HOBr as a reagent was compared to other hypohalous acids, during a 5′ reaction with uncrosslinked hexamers containing 5 μM NC1 domains.
The inventors therefore tested the molar efficiency of oxidation of purified uncrosslinked NC1 hexamer with HOCl and HOBr (FIG. 9A). […] To test this, they pretreated uncrosslinked NC1 hexamer with varying concentrations of HOCl, then treated with HOBr. […] As an independent approach to testing the dead-end sulfoxide hypothesis, the inventors pretreated NC1 hexamer with escalating levels of H2O2, a reagent known to generate methionine sulfoxides (Liang et al., 2012). […] They next decided to directly visualize the peptide containing Met93, the S donor of the S═N bond, within the residual monomeric NC1 fraction after HOCl oxidation and compare its oxidation status to untreated NC1 hexamer.

collagen IV NC1 hexamer [3] = assay: Purified peroxidases reacted with uncrosslinked NC1 hexamer and H2O2; format: biochemical, mouse; conditions: 16 nM enzyme, 500 nM NC1 hexamer, 10 μM H2O2, 1×PBS
Experimental: (§1) (FIG. 3A) SDS-PAGE of reactions consisting of 16 nM purified human peroxidasin (PXDN), 500 nM monomeric NC1 hexamer (3 μM potential crosslinks) and 10 μM H2O2 in 1×PBS. Control reactions without H2O2 or in the presence of the peroxidase inhibitor phloroglucinol (PHG; 50 μM) were also conducted. D represents crosslinked dimeric NC1 subunits, and M denotes uncrosslinked monomeric subunits. MW, molecular weight. (FIG. 3B) Coomassie blue-stained gel after SDS-PAGE of collagen IVNC1 hexamer is shown to illustrate relative amounts of sulfilimine-crosslinked dimeric (D) and uncrosslinked monomeric (M) subunits after incubation of uncrosslinked PFHR-9 basement membranes in varying buffer halide concentrations (Br— or Cl— as K+ salt) with or without 1 mM H2O2. (FIG. 3C) PXDN-mediated hypohalous acid (HOX) production expressed as nmol hypohalous acid generated per nmol enzyme per min, measured in 1×PBS plus 100 μM NaBr. Values represent mean±s.e.m. (n=3). (FIG. 3D) HOCl production measured directly in 1×PBS without added Br—. Values denote mean±s.e.m. (n=4). […] (FIG. 3E) HOX production, measured in nmol HOX generated per nmol enzyme per min for myeloperoxidase (MPO), eosinophil peroxidase (EPO) or LPO in 1×PBS plus 100 μM NaBr. Values represent mean±s.e.m. (n=3).
PHG, phloroglucinol; MW, molecular weight.
If peroxidasin uses hypohalous acids as intermediates to form sulfilimine bonds, these intermediates should recapitulate the reaction when directly added to purified, uncrosslinked collagen IV NC1 hexamer. […] Alternatively, other peroxidasesis provided to form reactive hypohalous acids.

[4] = Hypohalous acid production by peroxidases (taurine haloamine trapping); format: biochemical; conditions: 1×PBS plus 100 μM NaBr or without added Br—
Experimental: as §1
Hypohalous acids were trapped as stable taurine haloamines, which oxidize tetramethylbenzidine to yield a colorimetric measure of hypohalous acid concentration and production (Dypbukt et al., 2005).
Animal heme peroxidases, such as peroxidasin, myeloperoxidase, eosinophil peroxidase and lactoperoxidase, catalyze oxidative reactions using distinct halogenation and peroxidase cycles (Obinger, 2006). Both begin with hydrogen peroxide oxidation of the prosthetic heme iron to form an intermediate denoted compound I (Obinger, 2006). Compound I may oxidize halides into their respective hypohalous acids (or related oxidants in equilibrium), which may directly or indirectly halogenate susceptible moieties. Alternatively, compound I undergoes sequential reduction to form single electron-free radicals of energetically favorable substrates in the peroxidase cycle. Both pathways eventually regenerate reduced, native enzyme (Obinger, 2006). To determine whether peroxidasin forms sulfilimine bonds using a halogenation cycle, the inventors first tested whether peroxidasin crosslinks collagen IV in the absence of halides.

[5] = Peroxidase activity of media from transfected cells (tetramethylbenzidine colorimetric assay); format: biochemical; conditions: media of transiently transfected HEK293T cells
Experimental: FIGS. 5A-D—Peroxidasin uniquely crosslinks native collagen IV networks. (FIG. 5A) Experimental design of ‘overlay’ experiments. PFHR-9 cells were grown in the presence of phloroglucinol (PHG; 50 μM) to deposit uncrosslinked collagen IV (Col IV) networks. The cells were then removed, and the basement membrane was extracted with 4 M guanidine (Gdn) to inactivate endogenous peroxidasin. Cells stably transfected with human peroxidasin (PXDN) or untransfected HEK293 cells (WT HEK) were plated on top of the PFHR9 basement membrane, which was subsequently analyzed for collagen IV crosslink content. (FIG. 5B) Collagen IV-sulfilimine bond formation in the indicated experimental conditions as shown by stained SDS-PAGE gel. Two (WT HEK cells) or three (PXDN, with or without PHG) out of five independent experiments are shown. MW, molecular weight. (FIG. 5C) Coomassie blue-stained gel of collagen IVNC1 hexamers isolated from uncrosslinked PFHR-9 basement membrane overlaid with HEK293T cells transiently transfected with human peroxidasin cDNA, mouse myeloperoxidase cDNA (MPO), mouse lactoperoxidase cDNA (LPO) or empty vector (Mock). (FIG. 5D) Media from PXDN, MPO, LPO and mock-transfected cells were assayed for peroxidase activity using a tetramethylbenzidine-based colorimetric assay. Activity was expressed relative to peroxidasin (A650 of given peroxidase divided by A650 for peroxidasin). […]

Row | Molecule | effectiveness at forming a sulfilimine bond [1] | crosslinked dimeric subunits (percentage of dimeric subunit) (collagen IV NC1 hexamer [2]) | crosslinked dimeric subunits (percentage of dimeric subunit) (collagen IV NC1 hexamer [2]; listed as hypobromous acid) | dimer formation, molar efficiency of oxidation (collagen IV NC1 hexamer [2]; 5 μM NC1 hexamer, 5 minutes at 37° (FIG. 9A)) | efficiency versus other hypohalous acids in forming sulfilimine bonds (collagen IV NC1 hexamer [2]; 5 min reaction, 5 μM NC1 domains) | S═N bond formation as share of total Met93 oxidized (collagen IV NC1 hexamer [2]; oxidation event 1 (OE1), S—Cl or S—Br halosulfonium intermediate) | formation of sulfilimine crosslinks in NC1 hexamer (collagen IV NC1 hexamer [3]) | hypohalous acid formation [4] | enzymatic activity relative to peroxidasin [5]
1 | OBr [HOBr, hypobromous acid] | approximately twice as effective as HOCl | increased significantly | yielded crosslinked dimeric subunits | efficiently formed dimers even at parity with NC1 concentrations | superior to all other examined reagents | 56.1% | – | – | –
2 | B1 | – | – | – | – | – | – | formed sulfilimine crosslinks in collagen IV | preferentially formed hypochlorous acid | at least 30 fold
